In publication PMC5641094, “A peptide antagonist of Prep1-p160 interaction improves ceramide-induced insulin resistance in skeletal muscle cells” (Oncotarget, 2017):

Target: T1, Prep1/p160 complex (Rattus norvegicus, UniProt O35821)
T1 construct: endogenous in cells; host or cells: L6 rat skeletal muscle cells
T1 sequence (O35821 1-1344): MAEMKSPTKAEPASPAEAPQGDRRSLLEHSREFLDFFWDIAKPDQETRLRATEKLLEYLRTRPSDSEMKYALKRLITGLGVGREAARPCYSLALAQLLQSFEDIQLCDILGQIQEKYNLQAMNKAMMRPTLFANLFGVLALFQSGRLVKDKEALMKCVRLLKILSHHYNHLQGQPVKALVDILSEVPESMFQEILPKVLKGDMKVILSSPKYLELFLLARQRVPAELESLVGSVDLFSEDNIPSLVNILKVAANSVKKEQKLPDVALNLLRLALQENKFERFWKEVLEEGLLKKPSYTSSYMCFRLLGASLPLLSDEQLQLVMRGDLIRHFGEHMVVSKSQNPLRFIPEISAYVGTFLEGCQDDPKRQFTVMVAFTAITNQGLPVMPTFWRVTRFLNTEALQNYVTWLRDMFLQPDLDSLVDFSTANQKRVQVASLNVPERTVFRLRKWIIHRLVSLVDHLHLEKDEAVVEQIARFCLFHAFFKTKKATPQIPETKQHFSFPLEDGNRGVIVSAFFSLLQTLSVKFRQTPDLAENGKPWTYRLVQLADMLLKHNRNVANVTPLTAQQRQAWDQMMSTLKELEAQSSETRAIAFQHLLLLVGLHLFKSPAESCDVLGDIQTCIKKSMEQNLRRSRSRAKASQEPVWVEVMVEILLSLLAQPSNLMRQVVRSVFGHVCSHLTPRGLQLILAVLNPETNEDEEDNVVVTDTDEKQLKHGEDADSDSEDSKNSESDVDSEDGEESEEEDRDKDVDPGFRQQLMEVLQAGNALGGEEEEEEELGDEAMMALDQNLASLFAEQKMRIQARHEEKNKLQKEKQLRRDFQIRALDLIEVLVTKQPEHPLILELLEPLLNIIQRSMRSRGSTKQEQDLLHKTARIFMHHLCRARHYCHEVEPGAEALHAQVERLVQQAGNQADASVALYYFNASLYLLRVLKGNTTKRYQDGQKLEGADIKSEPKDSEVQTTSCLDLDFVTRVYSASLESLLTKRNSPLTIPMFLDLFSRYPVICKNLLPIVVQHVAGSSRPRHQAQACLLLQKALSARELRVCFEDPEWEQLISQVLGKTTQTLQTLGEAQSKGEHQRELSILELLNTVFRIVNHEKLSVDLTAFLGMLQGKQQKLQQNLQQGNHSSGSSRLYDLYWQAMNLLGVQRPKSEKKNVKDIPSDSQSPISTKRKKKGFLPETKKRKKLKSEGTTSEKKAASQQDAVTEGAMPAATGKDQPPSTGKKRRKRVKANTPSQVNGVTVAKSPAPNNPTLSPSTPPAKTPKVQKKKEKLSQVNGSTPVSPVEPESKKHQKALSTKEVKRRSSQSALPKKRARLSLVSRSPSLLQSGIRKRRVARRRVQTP
Assay: Prep1-p160 co-immunoprecipitation in L6 cells
Assay type: cell-based
Method: Figure 2 Effect of ceramides on Prep1 and p160 mRNA expression and of Prep1-p160 coprecipitation L6 cells were treated with C2cer (10μM) for 18h and Prep1 (A) or p160 (B) mRNA levels were analyzed by real-time RT-PCR analysis. Data were normalized by the amount of GAPDH mRNA, used as internal control. Bars represent the mean ± SD of three independent experiments, each performed in triplicate. (C) L6 cells were treated with cycloheximide (CHX) at 40μg/mL concentration for 18h and the lysates were analyzed by Western blot with anti-p160 and beta-actin. The autoradiograph shown is representative of three different experiments and subjected to densitometric analysis. […]
Figure 3 Design and in vitro effects of Prep1(54-72) peptide on Prep1/p160 association (A) Binding curves of Prep1(59-72) and Prep1(54-72) peptides to p160_20-160 by ELISA-like assays. […] (C) L6 cells were incubated with increasing concentrations of the fluorescein-conjugated peptide (FITC-Prep1(54-72)) and peptide uptake was detected by FACS analysis of fluorescein-labeled cells. […] Protein lysates were immunoprecipitated with Prep1 antibodies and analyzed by Western blot using antibodies for p160 or for Prep1. […] The blots were detected by ECL and autoradiography. […]
Total cell lysates were obtained and separated by SDS-PAGE. […] The protein concentrations in the cell lysates were measured using a Bio-Rad DC (detergent compatible) assay. […]

Row | induction of Prep1-p160 association (C2cer) [%] | effect on ceramide-stimulated Prep1-p160 co-precipitation (C2cer 10μM 18h, incubated with Prep1(54-72)) | Compound
1 | 80 |  | CCCCCCCCCCCCC/C=C/[C@@H](O)[C@H](CO)NC(C)=O [C2cer, D-erythro-Sphingosine, N-Acetyl-, reference compound]
2 |  | almost completely reverted | Ac-KQAIYRHPLFPLLALLFEK-NH2 [Prep1(54-72)]
